Experimental findings from patent publication US6346602B1, “Peptide mimics of the cytokine receptor common γ chain and methods and compositions for making and using the same” (Thomas Jefferson University, priority 1997, dated 2002) are described below.

This test concerns IL-4 induced proliferation of CTLL cell line. Briefly: CTLL Proliferation Assay (IL-4). It counts as cell-based, murine. The settings on record: CTLL cells, exogenous IL-4 (mIL-4), titred peptide; FIGS. 1A-1D, 2. How it is done: CTLL Proliferation Assay: The murine IL-2- and IL-4-responsive CTLL cell line was used to assess the ability of the gamma chain peptides to inhibit the binding of these cytokines to their respective receptors. The cell line proliferates in responses to exogenously added cytokine and inhibition of this proliferation by the peptides would be a result of blocking the cytokines from interacting with their receptors. Briefly, 5000 CTLL cells are added to the wells of a 96 well microtitre plate. Either 10 U/ml r-mIL-2 or 1 ng/ml r-mIL-4 are added to these wells along with titred amounts of the indicated peptides. Cultures are incubated at 37° C. for 24 hours and pulsed with ^3H-TdR for the final 6 hours to indicate amount of proliferation. Wells containing no peptide are deemed the positive response and well containing no peptide and no cytokine are deemed the background (bkg) proliferation. A percent response is calculated as follows: (CPM experimental-CPM bkg)/CPM positive response-CPM bkg). All data are expressed in this manner.

For the sequence CNHEPRFLSC [gamma-4], the “effect on cell proliferation in response to exogenous IL-4” value was “inhibits cell proliferation”. Take CLNLQNLC [gamma-5]: the “effect on cell proliferation in response to exogenous IL-4” value was “inhibits cell proliferation”.
